This note sets out measurements from EPA's ToxValDB 9.5 (doi:10.2903/j.efsa.2010.1558).

Each structure is given as a SMILES string. ≈ marks a conversion by molar mass, not a printed value.

In series [1] the test system is Tagia sp. To be noted: acute; duration: 14 days; mortality.
Series [2] deals with Pimephales promelas. Conditions: chronic/long-term; duration: 33 days; growth.
In series [3] the test system is Apis mellifera. Conditions: acute, duration: 48 hours, mortality.
Series [4] relates to Lepomis macrochirus. Conditions: acute; duration: 96 hours; mortality.
Series [5] concerns Typhlodromus pyri. To be noted: acute; duration: 14 days; reproduction.
For series [6], the system named is Daphnia magna. Conditions: chronic/long-term; duration: 21 days; mobility.
Series [7] relates to Rattus norvegicus. Conditions: for NOAEL: reproduction developmental.
Series [8] has as its system Canidae. Conditions: chronic; duration: 1 years; oral; Dog Other; body weight.
The test system of series [9] is Colinus virginianus. To be noted: oral.
Series [10] deals with Anas platyrhynchos. To be noted: reproductive.

For `N#CC(CCc1ccc(Cl)cc1)(Cn1cncn1)c1ccccc1` (centres undefined), the LC50 in [1] is > 100 mg/kg; in [4] it was 0.68 µg/mL (≈ 2.02 µM). For the same compound, the NOEC turned out to be 0.023 mg/L in [2], 0.078 mg/L in series [6] and 21 mg/kg-day in series [10]. The LD50 is > 5.5 µg/piece in series [3] (dermal); > 5.2 µg/piece in series [3] (oral, unspecified); > 5000 mg/kg-day in series [7] (acute, oral, mortality); > 2150 mg/kg-day in [9] (acute, mortality). Further, the LEL in series [5] was 63 g/ha. Also, the NOAEL in [7] (body weight) stood at 30 mg/kg-day; in series [7] (reproduction), 5 mg/kg-day; in series [8], 0.62 mg/kg-day. This compound had an NOEL in [9] (short-term, diet, food consumption) of 111 mg/kg-day.
